Earlier results in patent US9790225B2, “4-amino-3-phenylamino-6-phenylpyrazolo[3,4-d]pyrimidine derivatives, their manufacture and their use as antiviral active substances” (Scandion Oncology A/S, priority 2011, dated 2017).

Tests used:
[1] = tested on: 48 rhinovirus types, coxsackie virus A21, enterovirus 70, echovirus 11; conditions: Pattick et al. 1999; cited from earlier work
[2] = in vivo; cited from earlier work
[3] = in vivo; cited from earlier work; remark: listed apart in the source
[4] = cited from earlier work
[5] = in vivo; cited from earlier work; remark: listed apart in the source

## CCOC(=O)/C=C/[C@H](C[C@@H]1CCNC1=O)NC(=O)[C@@H](CC(=O)[C@@H](NC(=O)c1cc(C)on1)C(C)C)Cc1ccc(F)cc1 [AG 7088]
[1]
  Active concentration range in cell culture: nanomolar concentration range

## Cc1cc(CCCCCOc2c(Cl)cc(C3=NCCO3)cc2Cl)on1 [WIN 54954]
[2]
  Side effects: skin rash
[3]
  Metabolisation and excretion: fast metabolisation and excretion

## CCC(=O)C(CCCCCCOc1ccc(OC)cc1Cl)C(=O)CC [arildone]
[4]
  Solubility: Poor solubility
[5]
  Bioavailability: low bioavailability
